In ChEMBL document CHEMBL1156542, “Facile radiosynthesis of fluorine-18 labeled beta-blockers. Synthesis, radiolabeling, and ex vivo biodistribution of [18F]-(2S and 2R)-1-(1-fluoropropan-2-ylamino)-3-(m-tolyloxy)propan-2-ol” (J Med Chem, 2008):
Blank lines part the entries; values can stand above or below the compound they belong to.

Key:
[1] = Lipophilicity, log P at pH 7.4; format: physicochemical; conditions: buffer
Cerebellum [2] = test: Biodistribution in Sprague-Dawley rat cerebellum at 70 uCi, iv after 5 mins; format: ADME, organism-based; conditions: in vivo
Hippocampus [3] = test: Biodistribution in Sprague-Dawley rat hippocampus at 70 uCi, iv after 5 mins; format: ADME, organism-based; conditions: in vivo
Striatum [4] = test: Biodistribution in Sprague-Dawley rat striatum at 70 uCi, iv after 5 mins; format: ADME, organism-based; conditions: in vivo
[5] = Biodistribution in Sprague-Dawley rat frontal cortex at 70 uCi, iv after 5 mins; format: ADME, organism-based; conditions: in vivo
Cortex [6] = test: Biodistribution in Sprague-Dawley rat rest of cortex at 70 uCi, iv after 5 mins; format: ADME, organism-based; conditions: in vivo
Thalamus [7] = test: Biodistribution in Sprague-Dawley rat thalamus at 70 uCi, iv after 5 mins; format: ADME, organism-based; conditions: in vivo
Hypothalamus [8] = test: Biodistribution in Sprague-Dawley rat hypothalamus at 70 uCi, iv after 5 mins; format: ADME, organism-based; conditions: in vivo
Brain [9] = test: Biodistribution in Sprague-Dawley rat rest of brain at 70 uCi, iv after 5 mins; format: ADME, organism-based; conditions: in vivo
Heart [10] = test: Biodistribution in Sprague-Dawley rat heart at 70 uCi, iv after 5 mins; format: ADME, organism-based; conditions: in vivo
Bone [11] = test: Biodistribution in Sprague-Dawley rat bone at 70 uCi, iv after 5 mins; format: ADME, organism-based, Bone element; conditions: in vivo
Plasma [12] = test: Biodistribution in Sprague-Dawley rat plasma at 70 uCi, iv after 5 mins; format: ADME, organism-based; conditions: in vivo
[13] = Metabolic stability in Sprague-Dawley rat plasma at 70 uCi, iv after 5 mins; format: ADME, organism-based; conditions: read-out: Stability
[14] = Metabolic stability in Sprague-Dawley rat plasma at 70 uCi, iv after 15 mins; format: ADME, organism-based; conditions: read-out: Stability
[15] = Metabolic stability in Sprague-Dawley rat plasma at 70 uCi, iv after 30 mins; format: ADME, organism-based; conditions: read-out: Stability
[16] = Metabolic stability in Sprague-Dawley rat plasma at 70 uCi, iv after 60 mins; format: ADME, organism-based; conditions: read-out: Stability
Cerebellum [17] = test: Biodistribution in Sprague-Dawley rat cerebellum at 70 uCi, iv after 15 mins; format: ADME, organism-based; conditions: in vivo, 0.25 h
Hippocampus [18] = test: Biodistribution in Sprague-Dawley rat hippocampus at 70 uCi, iv after 15 mins; format: ADME, organism-based; conditions: in vivo, 0.25 h
Heart [19] = test: Biodistribution in Sprague-Dawley rat heart at 70 uCi, iv after 15 mins; format: ADME, organism-based; conditions: in vivo, 0.25 h
Striatum [20] = test: Biodistribution in Sprague-Dawley rat striatum at 70 uCi, iv after 15 mins; format: ADME, organism-based; conditions: in vivo, 0.25 h
[21] = Biodistribution in Sprague-Dawley rat frontal cortex at 70 uCi, iv after 15 mins; format: ADME, organism-based; conditions: in vivo, 0.25 h
Cortex [22] = test: Biodistribution in Sprague-Dawley rat rest of cortex at 70 uCi, iv after 15 mins; format: ADME, organism-based; conditions: in vivo, 0.25 h
Thalamus [23] = test: Biodistribution in Sprague-Dawley rat thalamus at 70 uCi, iv after 15 mins; format: ADME, organism-based; conditions: in vivo, 0.25 h
Hypothalamus [24] = test: Biodistribution in Sprague-Dawley rat hypothalamus at 70 uCi, iv after 15 mins; format: ADME, organism-based; conditions: in vivo, 0.25 h
Brain [25] = test: Biodistribution in Sprague-Dawley rat rest of brain at 70 uCi, iv after 15 mins; format: ADME, organism-based; conditions: in vivo, 0.25 h
Bone [26] = test: Biodistribution in Sprague-Dawley rat bone at 70 uCi, iv after 15 mins; format: ADME, organism-based, Bone element; conditions: in vivo, 0.25 h
Plasma [27] = test: Biodistribution in Sprague-Dawley rat plasma at 70 uCi, iv after 15 mins; format: ADME, organism-based; conditions: in vivo, 0.25 h
Cerebellum [28] = test: Biodistribution in Sprague-Dawley rat cerebellum at 70 uCi, iv after 30 mins; format: ADME, organism-based; conditions: in vivo, 0.5 h
Hippocampus [29] = test: Biodistribution in Sprague-Dawley rat hippocampus at 70 uCi, iv after 30 mins; format: ADME, organism-based; conditions: in vivo, 0.5 h
Striatum [30] = test: Biodistribution in Sprague-Dawley rat striatum at 70 uCi, iv after 30 mins; format: ADME, organism-based; conditions: in vivo, 0.5 h
[31] = Biodistribution in Sprague-Dawley rat frontal cortex at 70 uCi, iv after 30 mins; format: ADME, organism-based; conditions: in vivo, 0.5 h
Cortex [32] = test: Biodistribution in Sprague-Dawley rat rest of cortex at 70 uCi, iv after 30 mins; format: ADME, organism-based; conditions: in vivo, 0.5 h
Thalamus [33] = test: Biodistribution in Sprague-Dawley rat thalamus at 70 uCi, iv after 30 mins; format: ADME, organism-based; conditions: in vivo, 0.5 h
Hypothalamus [34] = test: Biodistribution in Sprague-Dawley rat hypothalamus at 70 uCi, iv after 30 mins; format: ADME, organism-based; conditions: in vivo, 0.5 h
Brain [35] = test: Biodistribution in Sprague-Dawley rat rest of brain at 70 uCi, iv after 30 mins; format: ADME, organism-based; conditions: in vivo, 0.5 h
Heart [36] = test: Biodistribution in Sprague-Dawley rat heart at 70 uCi, iv after 30 mins; format: ADME, organism-based; conditions: in vivo, 0.5 h
Bone [37] = test: Biodistribution in Sprague-Dawley rat bone at 70 uCi, iv after 30 mins; format: ADME, organism-based, Bone element; conditions: in vivo, 0.5 h
Plasma [38] = test: Biodistribution in Sprague-Dawley rat plasma at 70 uCi, iv after 30 mins; format: ADME, organism-based; conditions: in vivo, 0.5 h
Cerebellum [39] = test: Biodistribution in Sprague-Dawley rat cerebellum at 70 uCi, iv after 60 mins; format: ADME, organism-based; conditions: in vivo, 1 h
Hippocampus [40] = test: Biodistribution in Sprague-Dawley rat hippocampus at 70 uCi, iv after 60 mins; format: ADME, organism-based; conditions: in vivo, 1 h
Striatum [41] = test: Biodistribution in Sprague-Dawley rat striatum at 70 uCi, iv after 60 mins; format: ADME, organism-based; conditions: in vivo, 1 h
[42] = Biodistribution in Sprague-Dawley rat frontal cortex at 70 uCi, iv after 60 mins; format: ADME, organism-based; conditions: in vivo, 1 h
Cortex [43] = test: Biodistribution in Sprague-Dawley rat rest of cortex at 70 uCi, iv after 60 mins; format: ADME, organism-based; conditions: in vivo, 1 h
Thalamus [44] = test: Biodistribution in Sprague-Dawley rat thalamus at 70 uCi, iv after 60 mins; format: ADME, organism-based; conditions: in vivo, 1 h
Hypothalamus [45] = test: Biodistribution in Sprague-Dawley rat hypothalamus at 70 uCi, iv after 60 mins; format: ADME, organism-based; conditions: in vivo, 1 h
Brain [46] = test: Biodistribution in Sprague-Dawley rat rest of brain at 70 uCi, iv after 60 mins; format: ADME, organism-based; conditions: in vivo, 1 h
Heart [47] = test: Biodistribution in Sprague-Dawley rat heart at 70 uCi, iv after 60 mins; format: ADME, organism-based; conditions: in vivo, 1 h
Bone [48] = test: Biodistribution in Sprague-Dawley rat bone at 70 uCi, iv after 60 mins; format: ADME, organism-based, Bone element; conditions: in vivo, 1 h
Plasma [49] = test: Biodistribution in Sprague-Dawley rat plasma at 70 uCi, iv after 60 mins; format: ADME, organism-based; conditions: in vivo, 1 h
[50] = target: Beta-1 adrenergic receptor (Homo sapiens, UniProt P08588); test: Binding affinity to beta-1 adrenergic receptor
[51] = target: Beta-2 adrenergic receptor (Homo sapiens, UniProt P07550); test: Binding affinity to beta2 adrenergic receptor
Sequence of Beta-2 adrenergic receptor (P07550 whole entry): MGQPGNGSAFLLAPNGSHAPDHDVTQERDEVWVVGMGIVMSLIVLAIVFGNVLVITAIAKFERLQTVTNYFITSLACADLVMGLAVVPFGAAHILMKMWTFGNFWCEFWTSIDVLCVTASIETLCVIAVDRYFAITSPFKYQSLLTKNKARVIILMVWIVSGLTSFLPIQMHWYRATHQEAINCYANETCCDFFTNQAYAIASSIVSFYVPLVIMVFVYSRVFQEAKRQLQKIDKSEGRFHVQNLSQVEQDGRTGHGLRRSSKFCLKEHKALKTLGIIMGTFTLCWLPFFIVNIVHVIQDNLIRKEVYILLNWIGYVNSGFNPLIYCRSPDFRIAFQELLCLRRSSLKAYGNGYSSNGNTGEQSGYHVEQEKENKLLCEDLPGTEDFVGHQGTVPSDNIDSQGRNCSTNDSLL

Sequence of Beta-1 adrenergic receptor (P08588 whole entry): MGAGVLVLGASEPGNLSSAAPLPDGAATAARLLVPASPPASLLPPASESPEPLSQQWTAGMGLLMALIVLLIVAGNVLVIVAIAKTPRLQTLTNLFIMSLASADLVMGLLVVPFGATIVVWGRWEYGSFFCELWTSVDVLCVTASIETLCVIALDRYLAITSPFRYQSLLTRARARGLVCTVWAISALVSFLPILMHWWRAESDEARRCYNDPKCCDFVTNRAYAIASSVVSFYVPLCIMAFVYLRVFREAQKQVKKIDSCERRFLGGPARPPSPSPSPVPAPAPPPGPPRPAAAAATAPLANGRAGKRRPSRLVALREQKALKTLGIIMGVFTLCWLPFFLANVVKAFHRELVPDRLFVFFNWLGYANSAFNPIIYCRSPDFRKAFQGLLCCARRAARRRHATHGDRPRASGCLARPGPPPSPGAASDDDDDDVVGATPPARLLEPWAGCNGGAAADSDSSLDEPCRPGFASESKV

logD [1]: 0.2
Compound: Cc1cccc(OC[11C@@H](O)CNC(C)C)c1

logD [1]: 1.68
Drug uptake (Cerebellum [2]): 0.75 % ID/g
Drug uptake (Hippocampus [3]): 0.91 % ID/g
Drug uptake (Striatum [4]): 0.97 % ID/g
Drug uptake [5]: 1.21 % ID/g
Drug uptake (Cortex [6]): 1.12 % ID/g
Drug uptake (Thalamus [7]): 1.03 % ID/g
Drug uptake (Hypothalamus [8]): 0.77 % ID/g
Drug uptake (Brain [9]): 0.84 % ID/g
Drug uptake (Heart [10]): 0.59 % ID/g
Drug uptake (Bone [11]): 0.18 % ID/g
Drug uptake (Plasma [12]): 0.16 % ID/g
remaining at 5 min [13]: 59.2%
remaining at 0.25 h [14]: 28.6%
remaining at 0.5 h [15]: 16.4%
remaining at 1 h [16]: 11.9%
Drug uptake (Cerebellum [17]): 0.46 % ID/g
Drug uptake (Hippocampus [18]): 0.63 % ID/g
Drug uptake (Heart [19]): 0.26 % ID/g
Drug uptake (Striatum [20]): 0.59 % ID/g
Drug uptake [21]: 0.67 % ID/g
Drug uptake (Cortex [22]): 0.62 % ID/g
Drug uptake (Thalamus [23]): 0.65 % ID/g
Drug uptake (Hypothalamus [24]): 0.5 % ID/g
Drug uptake (Brain [25]): 0.5 % ID/g
Drug uptake (Bone [26]): 0.21 % ID/g
Drug uptake (Plasma [27]): 0.13 % ID/g
Drug uptake (Cerebellum [28]): 0.21 % ID/g
Drug uptake (Hippocampus [29]): 0.31 % ID/g
Drug uptake (Striatum [30]): 0.27 % ID/g
Drug uptake [31]: 0.3 % ID/g
Drug uptake (Cortex [32]): 0.29 % ID/g
Drug uptake (Thalamus [33]): 0.29 % ID/g
Drug uptake (Hypothalamus [34]): 0.22 % ID/g
Drug uptake (Brain [35]): 0.24 % ID/g
Drug uptake (Heart [36]): 0.15 % ID/g
Drug uptake (Bone [37]): 0.18 % ID/g
Drug uptake (Plasma [38]): 0.13 % ID/g
Drug uptake (Cerebellum [39]): 0.08 % ID/g
Drug uptake (Hippocampus [40]): 0.12 % ID/g
Drug uptake (Striatum [41]): 0.11 % ID/g
Drug uptake [42]: 0.12 % ID/g
Drug uptake (Cortex [43]): 0.11 % ID/g
Drug uptake (Thalamus [44]): 0.11 % ID/g
Drug uptake (Hypothalamus [45]): 0.09 % ID/g
Drug uptake (Brain [46]): 0.1 % ID/g
Drug uptake (Heart [47]): 0.06 % ID/g
Drug uptake (Bone [48]): 0.18 % ID/g
Drug uptake (Plasma [49]): 0.08 % ID/g
Compound: Cc1cccc(OC[C@@H](O)CNC(C)C[18F])c1 (stereo partly drawn)

logD [1]: 1.79
Drug uptake (Cerebellum [2]): 0.82 % ID/g
Drug uptake (Hippocampus [3]): 1.01 % ID/g
Drug uptake (Striatum [4]): 1.04 % ID/g
Drug uptake [5]: 1.3 % ID/g
Drug uptake (Cortex [6]): 1.12 % ID/g
Drug uptake (Thalamus [7]): 1.19 % ID/g
Drug uptake (Hypothalamus [8]): 0.92 % ID/g
Drug uptake (Brain [9]): 0.88 % ID/g
Drug uptake (Heart [10]): 0.51 % ID/g
Drug uptake (Bone [11]): 0.3 % ID/g
Drug uptake (Plasma [12]): 0.16 % ID/g
remaining at 5 min [13]: 61.9%
remaining at 0.25 h [14]: 25.5%
remaining at 0.5 h [15]: 12.6%
remaining at 1 h [16]: 7.7%
Drug uptake (Cerebellum [17]): 0.43 % ID/g
Drug uptake (Hippocampus [18]): 0.6 % ID/g
Drug uptake (Heart [19]): 0.26 % ID/g
Drug uptake (Striatum [20]): 0.54 % ID/g
Drug uptake [21]: 0.59 % ID/g
Drug uptake (Cortex [22]): 0.55 % ID/g
Drug uptake (Thalamus [23]): 0.62 % ID/g
Drug uptake (Hypothalamus [24]): 0.46 % ID/g
Drug uptake (Brain [25]): 0.47 % ID/g
Drug uptake (Bone [26]): 0.22 % ID/g
Drug uptake (Plasma [27]): 0.13 % ID/g
Drug uptake (Cerebellum [28]): 0.23 % ID/g
Drug uptake (Hippocampus [29]): 0.31 % ID/g
Drug uptake (Striatum [30]): 0.26 % ID/g
Drug uptake [31]: 0.29 % ID/g
Drug uptake (Cortex [32]): 0.29 % ID/g
Drug uptake (Thalamus [33]): 0.3 % ID/g
Drug uptake (Hypothalamus [34]): 0.23 % ID/g
Drug uptake (Brain [35]): 0.25 % ID/g
Drug uptake (Heart [36]): 0.15 % ID/g
Drug uptake (Bone [37]): 0.3 % ID/g
Drug uptake (Plasma [38]): 0.13 % ID/g
Drug uptake (Cerebellum [39]): 0.08 % ID/g
Drug uptake (Hippocampus [40]): 0.12 % ID/g
Drug uptake (Striatum [41]): 0.11 % ID/g
Drug uptake [42]: 0.12 % ID/g
Drug uptake (Cortex [43]): 0.11 % ID/g
Drug uptake (Thalamus [44]): 0.12 % ID/g
Drug uptake (Hypothalamus [45]): 0.09 % ID/g
Drug uptake (Brain [46]): 0.1 % ID/g
Drug uptake (Heart [47]): 0.07 % ID/g
Drug uptake (Bone [48]): 0.25 % ID/g
Drug uptake (Plasma [49]): 0.07 % ID/g
Compound: Cc1cccc(OC[C@H](O)CNC(C)C[18F])c1 (stereo partly drawn)

Kd [50]: 0.38 nM
Kd [51]: 1.2 nM
Compound: Cc1cccc(OC[C@@H](O)CNC(C)C)c1 [(S)-TOLIPROLOL]

logD [1]: 1.36
Compound: CC(C)NCC(O)COc1cccc2[nH]c3ccccc3c12 (stereo not drawn) [CARAZOLOL]

Compound: CC(CF)NCC(O)COc1cccc2[nH]c3ccccc3c12 (stereo not drawn) [FLUOROCARAZOLOL]
logD [1]: 2.2
